Assay results reported in patent US20220348563A1, “KDM INHIBITORS AND USES THEREOF” (DANA-FARBER CANCER INSTITUTE, INC., priority 2019, published 2022).

Molecular target: KDM3B (Homo sapiens, UniProt Q7LBC6)
Experiment: KDM3B AlphaScreen assay (Table 1)
Assay type: biochemical
Protocol: AlphaScreen assays were performed in 384-well plate format using white AlphaPlate™ (PerkinElmer®, USA), and transfer of pre-diluted compound (100 nL) was performed using a Janus® Workstation (PerkinElmer®, USA). All subsequent steps were carried out in assay buffer (50 mM 4-(2-hydroxyethyl)-1-piperazineethanesulfonic acid (HEPES), pH 7.5, 0.1% (wt/vol) bovine serum albumin (BSA) and 0.01% (vol/vol) Tween®20). In brief, 10 μL of assay buffer containing demethylase enzyme (2 nM Final) was pre-incubated for 15 min with dilutions of compound. The enzyme reaction was initiated by the addition of substrate (5 μL) consisting of L-ascorbic acid (100 μM Final), […] (OG) (5 μM Final), FAS (10 μM Final) and histone H3(1-21)K9Me3-GGK Biotin (100 nM Final). The enzyme reaction was allowed to proceed for 30 minutes and was stopped by the addition of 5 μL of assay buffer containing ethylenediaminetetraacetic acid (EDTA) (40 mM) and NaCl (1,200 mM). The final concentration of DMSO was 1%. Streptavidin donor beads (0.08 mg/ml) and protein-A-conjugated acceptor beads (0.08 mg/ml) were preincubated for 1 h with antibody to methyl mark (300 ng/mL Final), and the presence of histone H3 product methyl mark was detected using the preincubated AlphaScreen™ beads (5 μL). […] Data were normalized to the (no-enzyme) control, and the IC50 values were determined via nonlinear regression curve fit using GraphPad Prism 7.
Data are expressed as IC50 (μM).

Chain of KDM3B (Q7LBC6 whole entry, species assumed): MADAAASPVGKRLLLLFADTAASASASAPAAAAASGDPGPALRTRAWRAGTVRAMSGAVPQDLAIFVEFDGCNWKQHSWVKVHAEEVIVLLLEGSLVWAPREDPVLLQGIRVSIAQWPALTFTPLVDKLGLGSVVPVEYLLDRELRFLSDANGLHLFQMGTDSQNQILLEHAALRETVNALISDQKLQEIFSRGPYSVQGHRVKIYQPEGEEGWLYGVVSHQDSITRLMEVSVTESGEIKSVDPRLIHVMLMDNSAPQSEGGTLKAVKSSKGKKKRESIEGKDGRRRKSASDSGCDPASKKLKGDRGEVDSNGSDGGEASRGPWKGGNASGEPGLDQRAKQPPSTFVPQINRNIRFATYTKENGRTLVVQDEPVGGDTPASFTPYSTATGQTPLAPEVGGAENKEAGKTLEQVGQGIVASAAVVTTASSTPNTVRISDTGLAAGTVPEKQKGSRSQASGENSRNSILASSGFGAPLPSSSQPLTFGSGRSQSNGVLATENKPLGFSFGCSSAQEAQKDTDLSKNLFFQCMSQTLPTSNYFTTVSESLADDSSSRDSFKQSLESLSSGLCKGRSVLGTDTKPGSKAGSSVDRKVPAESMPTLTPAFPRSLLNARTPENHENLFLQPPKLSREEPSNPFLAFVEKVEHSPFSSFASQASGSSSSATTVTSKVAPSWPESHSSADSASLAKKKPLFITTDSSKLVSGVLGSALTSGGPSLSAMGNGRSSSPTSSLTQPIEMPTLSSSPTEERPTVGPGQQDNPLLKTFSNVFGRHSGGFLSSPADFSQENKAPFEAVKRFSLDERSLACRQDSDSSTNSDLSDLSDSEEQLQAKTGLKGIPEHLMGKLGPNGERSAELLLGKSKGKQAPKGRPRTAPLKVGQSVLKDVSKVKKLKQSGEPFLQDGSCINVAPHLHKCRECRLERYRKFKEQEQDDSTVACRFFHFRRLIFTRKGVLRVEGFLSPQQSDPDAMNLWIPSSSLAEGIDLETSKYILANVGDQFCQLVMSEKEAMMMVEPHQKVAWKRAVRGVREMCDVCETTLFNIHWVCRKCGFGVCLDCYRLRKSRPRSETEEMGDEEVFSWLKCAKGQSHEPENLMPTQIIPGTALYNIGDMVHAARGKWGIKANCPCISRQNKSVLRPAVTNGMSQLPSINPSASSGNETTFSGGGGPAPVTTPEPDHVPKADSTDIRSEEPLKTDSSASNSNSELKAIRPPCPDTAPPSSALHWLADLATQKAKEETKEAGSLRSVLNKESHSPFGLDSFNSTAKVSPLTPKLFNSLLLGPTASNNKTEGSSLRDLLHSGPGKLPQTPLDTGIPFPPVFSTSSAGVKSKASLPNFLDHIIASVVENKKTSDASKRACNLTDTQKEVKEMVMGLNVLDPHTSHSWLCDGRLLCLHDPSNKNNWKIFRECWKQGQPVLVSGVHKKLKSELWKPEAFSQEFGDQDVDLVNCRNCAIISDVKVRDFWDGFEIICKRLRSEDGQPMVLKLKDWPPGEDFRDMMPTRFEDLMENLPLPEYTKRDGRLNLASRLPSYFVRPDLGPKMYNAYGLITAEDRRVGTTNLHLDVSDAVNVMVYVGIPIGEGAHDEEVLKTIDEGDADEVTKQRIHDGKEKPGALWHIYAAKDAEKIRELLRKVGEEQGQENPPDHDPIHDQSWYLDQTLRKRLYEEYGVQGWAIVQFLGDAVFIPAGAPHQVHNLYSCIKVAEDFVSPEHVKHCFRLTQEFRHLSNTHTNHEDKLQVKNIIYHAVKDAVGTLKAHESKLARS

CN(C)c1ccc(CCNC(=O)CCC(=O)N2CCC(Oc3ccc(C(F)(F)F)cn3)CC2)cc1 [JADA69, N-(4-(dimethylamino)phenethyl)-4-oxo-4-(4-((5-(trifluoromethyl)pyridin-2-yl)oxy)piperidin-1-yl)butanamide]
IC50 (ASSAY 1): 27.9 µM

CN(C)c1ccc(CCNC(=O)CCC(=O)N2CCC(Oc3cc(-c4ccc(N(C)C)cc4)ccn3)CC2)cc1 [JADA84, N-(4-(dimethylamino)phenethyl)-4-(4-((4-(4-(dimethylamino)phenyl)pyridin-2-yl)oxy)piperidin-1-yl)-4-oxobutanamide]
IC50 (ASSAY 1): 53 µM

CN(C)c1ccc(CCNC(=O)CCC(=O)N2CCC(Oc3ccc(-c4ccc(N(C)C)cc4)cn3)CC2)cc1 [JADA92, N-(4-(dimethylamino)phenethyl)-4-(4-((5-(4-(dimethylamino)phenyl)pyridin-2-yl)oxy)piperidin-1-yl)-4-oxobutanamide]
IC50 (ASSAY 1): 8.78 µM | IC50 (ASSAY 2): 13.7 µM | IC50 (ASSAY 7): 9.79 µM

CN(C)c1ccc(CCCNC(=O)c2ccccc2C(=O)N2CCC(Oc3ccc(Br)cn3)CC2)cc1 [JADA133]
IC50 (ASSAY 3): 18.6 µM

CN(C)c1ccc(CCC(=O)Nc2ccc(F)cc2C(=O)N2CCC(Oc3ccc(-c4ccc(N(C)C)cc4)cn3)CC2)cc1 [KDM3-23, 3-(4-(dimethylamino)phenyl)-N-(2-(4-((5-(4-(dimethylamino)phenyl)pyridin-2-yl)oxy)piperidine-1-carbonyl)-4-fluorophenyl)propanamide]
KDM3B inhibition, verdict in words on Table 1: potent KDM3B inhibitors | IC50 (ASSAY 5): 4.78 µM

CN(C)c1ccc(CCC(=O)Nc2ccc(F)cc2C(=O)N2CCC(Oc3ccc(-c4ccc(CN5CCOCC5)cc4)cn3)CC2)cc1 [KDM3-24]
IC50 (ASSAY 5): 10.9 µM

CN(C)c1ccc(CCC(=O)Nc2ccc(F)cc2C(=O)N2CCC(Oc3cc(N4CCOCC4)ccn3)CC2)cc1 [KDM3-26, 3-(4-(dimethylamino)phenyl)-N-(4-fluoro-2-(4-((4-morpholinopyridin-2-yl)oxy)piperidine-1-carbonyl)phenyl)propanamide]
IC50 (ASSAY 6): 74.3 µM

CN(C)c1ccc(CCC(=O)Nc2ccc(F)cc2C(=O)N2CCC(Oc3cc(N4CCCCC4)ccn3)CC2)cc1 [KDM3-27, 3-(4-(dimethylamino)phenyl)-N-(4-fluoro-2-(4-((4-(piperidin-1-yl)pyridin-2-yl)oxy)piperidine-1-carbonyl)phenyl)propanamide]
IC50 (ASSAY 6): 11.3 µM

CCOC(=O)c1ccc(N)c(C(=O)N2CCC(Oc3cc(-c4ccc(N(C)C)cc4)ccn3)CC2)c1 [KDM3-31, ethyl 4-amino-3-(4-((4-(4-(dimethylamino)phenyl)pyridin-2-yl)oxy)piperidine-1-carbonyl)benzoate]
IC50 (ASSAY 6): 9.43 µM | IC50 (ASSAY 7): 8.26 µM | IC50 (ASSAY 8): 10.8 µM

CN(C)c1ccc(CCNC(=O)/C=C\C(=O)N2CCC(Oc3ccc(-c4ccc(N(C)C)cc4)cn3)CC2)cc1 [KDM3-38, (Z)-N-(4-(dimethylamino)phenethyl)-4-(4-((5-(4-(dimethylamino)phenyl)pyridin-2-yl)oxy)piperidin-1-yl)-4-oxobut-2-enamide]
IC50 (ASSAY 7): 5.65 µM

CN(C)c1ccc(-c2ccc(OC3CCN(C(=O)c4ccccc4[N+](=O)[O-])CC3)nc2)cc1 [KDM3-39, (4-((5-(4-(dimethylamino)phenyl)pyridin-2-yl)oxy)piperidin-1-yl)(2-nitrophenyl)methanone]
IC50 (ASSAY 7): 10.9 µM | IC50 (ASSAY 8): 19.2 µM

CC(=O)Nc1ccc(C(=O)N2CCC(Oc3ccc(-c4ccc(N(C)C)cc4)cn3)CC2)c(N)c1 [KDM3-40, N-(3-amino-4-(4-((5-(4-(dimethylamino)phenyl)pyridin-2-yl)oxy)piperidine-1-carbonyl)phenyl)acetamide]
IC50 (ASSAY 8): 22.4 µM

CN(C)c1ccc(-c2ccc(OC3CCN(C(=O)c4cc(C(=O)O)ccc4N)CC3)nc2)cc1 [KDM3-41, 4-amino-3-(4-((5-(4-(dimethylamino)phenyl)pyridin-2-yl)oxy)piperidine-1-carbonyl)benzoic acid]
IC50 (ASSAY 8): 49.4 µM

CN(C)c1ccc(-c2ccc(OC3CN(C(=O)c4ccccc4[N+](=O)[O-])C3)nc2)cc1 [KDM3-42, (3-((5-(4-(dimethylamino)phenyl)pyridin-2-yl)oxy)azetidin-1-yl)(2-nitrophenyl)methanone]
IC50 (ASSAY 8): 11.8 µM

CN(C)c1ccc(-c2ccnc(OC3CCN(C(=O)c4cc(C(=O)O)ccc4N)CC3)c2)cc1 [KDM3-43, 4-amino-3-(4-((4-(4-(dimethylamino)phenyl)pyridin-2-yl)oxy)piperidine-1-carbonyl)benzoic acid]
IC50 (ASSAY 8): 61 µM
